In US6559151B2, “6-(2-trifluoromethyl-phenyl)-triazolopyrimidines” (BASF Aktiengesellschaft, priority 2000, dated 2003):
Converted amounts (≈) assume the structure as drawn.

Tests used:
Format in all cases: cell-based
[1] = system: Cochliobulus sativus; assay: MIC serial dilution test, Cochliobulus sativus; settings: V8 juice medium, 6-12 days at 18-25° C., visual
[2] = system: Magnaporthe grisea f. sp. Oryzae; settings: total inhibition of mycelial growth; V8 juice medium; 6-12 days at 18-25° C.; visual
[3] = system: Botrytis cinerea; assay: MIC serial dilution test, Botrytis cinerea; settings: V8 juice medium, 6-12 days at 18-25° C., visual
[4] = system: Alternaria solani; assay: MIC serial dilution test, Alternaria solani; settings: V8 juice medium, 6-12 days at 18-25° C., visual
[5] = system: Rhizoctonia solani; assay: In vitro fungicidal activity against Rhizoctonia solani (mycelial growth inhibition rating); design: key: 0: None; 3: slight; 5: moderate; 7: severe; 9: complete; settings: 25 ppm; 24-cell-well plates; 3-7 days of incubation
Description: C Evaluation of In vitro Fungicidal Activity against Rhizoctonia solani Test compounds are dissolved in acetone to give a concentration of 25 ppm and added to individual cell walls (24-cell-well-plates, Corning), which were previously filled with a suspension of ground fungal mycelium in a chemically defined growth medium. After 3-7 days of incubation, inhibition of mycelial growth is recorded using the following scale: The data obtained are shown in Table IV. Rating scale [table]

SMILES | MIC (Minimum Inhibitory Concentration) COCHSA [1] [µg/mL] | MIC (Minimum Inhibitory Concentration) PYRIOR [2] [µg/mL] | MIC (Minimum Inhibitory Concentration) BOTRCI [3] | MIC (Minimum Inhibitory Concentration) ALTEBO [4] [µg/mL] | Rating (inhibition of mycelial growth) [5]
CC(C)Nc1c(-c2cc(F)ccc2C(F)(F)F)c(Cl)nc2ncnn12 [Compound I-1, [5-chloro-6-(5-fluoro-2-trifluoromethyl-phenyl)-[1,2,4]triazolo[1,5-α]pyrimidin-7-yl]-isopropyl-amine] | 25 (≈ 66.9 µM) | 1.56 (≈ 4.17 µM) | 50 µg/mL (≈ 134 µM) | 100 (≈ 268 µM) | 7
Fc1ccc(C(F)(F)F)c(-c2c(Cl)nc3ncnn3c2NC2CCCC2)c1 [Compound I-2, [5-chloro-6-(5-fluoro-2-trifluoromethyl-phenyl)-[1,2,4]triazolo[1,5-α]pyrimidin-7-yl]-cyclopentyl-amine] | 3.13 (≈ 7.83 µM) | 0.78 (≈ 1.95 µM) | 25 µg/mL (≈ 62.5 µM) | 3.13 (≈ 7.83 µM) | 7
Fc1ccc(C(F)(F)F)c(-c2c(Cl)nc3ncnn3c2NC2CC3CCC2C3)c1 (centres unmarked) [Compound I-3] | 6.25 (≈ 14.7 µM) | 12.5 (≈ 29.4 µM) | 25 µg/mL (≈ 58.7 µM) | 0.78 (≈ 1.83 µM) | 5
CCN(CC)c1c(-c2cc(F)ccc2C(F)(F)F)c(Cl)nc2ncnn12 [Compound I-4, N-[5-chloro-6-(5-fluoro-2-trifluoromethyl-phenyl)-[1,2,4]triazolo[1,5-α]pyrimidin-7-yl]-N,N-diethyl-amine] | 12.5 (≈ 32.2 µM) | 0.78 (≈ 2.01 µM) | 25 µg/mL (≈ 64.5 µM) | >100 | 7
CCC(C)Nc1c(-c2cc(F)ccc2C(F)(F)F)c(Cl)nc2ncnn12 (stereo not drawn) [Compound I-5, [5-chloro-6-(5-fluoro-2-trifluoromethyl-phenyl)-[1,2,4]triazolo[1,5-α]pyrimidin-7-yl]-N-(1-methyl-propyl)-amine] | 12.5 (≈ 32.2 µM) | 0.78 (≈ 2.01 µM) | 12.5 µg/mL (≈ 32.2 µM) | 6.25 (≈ 16.1 µM) | 7
Fc1ccc(C(F)(F)F)c(-c2c(Cl)nc3ncnn3c2NCC(F)(F)F)c1 [Compound I-6] | – | – | – | – | 7
Nc1c(-c2cc(F)ccc2C(F)(F)F)c(Cl)nc2ncnn12 [Compound I-7] | – | – | – | – | 0
CC1CCN(c2c(-c3cc(F)ccc3C(F)(F)F)c(Cl)nc3ncnn23)CC1 [Example 5, 5-Chloro-6-(5-fluoro-2-trifluorome-thylphenyl)-7-(4-methyl-piperidin-1-yl)-[1,2,4]triazolo[1,5-α]pyrimidine] | 0.78 (≈ 1.88 µM) | <0.05 | 0,78 μg/ml | 0.2 (≈ 0.483 µM) | 7
